Values of other authors in patent publication US20050013858A1, “Oral pharmaceutical compositions containing terbinafine” (priority 2001, published 2005).

Key:
CYP2D6 = CYP2D6 (Homo sapiens, UniProt P10635)
[1] = steady state, in comparison to the single dose

CYP2D6, sequence (P10635 whole entry): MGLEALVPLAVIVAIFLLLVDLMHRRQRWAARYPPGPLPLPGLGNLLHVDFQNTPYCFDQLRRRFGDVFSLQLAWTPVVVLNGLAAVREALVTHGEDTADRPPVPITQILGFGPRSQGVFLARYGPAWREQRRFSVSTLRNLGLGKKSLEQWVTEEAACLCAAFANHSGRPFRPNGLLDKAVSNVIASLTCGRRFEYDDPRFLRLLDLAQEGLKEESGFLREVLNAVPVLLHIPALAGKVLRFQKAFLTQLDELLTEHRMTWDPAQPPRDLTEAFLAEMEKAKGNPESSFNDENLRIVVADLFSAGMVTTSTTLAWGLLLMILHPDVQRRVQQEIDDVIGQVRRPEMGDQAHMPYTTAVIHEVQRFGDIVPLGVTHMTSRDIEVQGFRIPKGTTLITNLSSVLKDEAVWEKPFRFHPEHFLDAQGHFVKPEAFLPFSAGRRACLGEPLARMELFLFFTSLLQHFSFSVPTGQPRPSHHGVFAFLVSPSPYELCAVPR

Which results are given for CN(C/C=C/C#CC(C)(C)C)Cc1cccc2ccccc12 [terbinafine]?
inhibition of CYP2D6 (CYP2D6): potent inhibitor; increase in AUC (administered with a fat-rich meal): 42%; effective half-life (in vivo): ca. 36 hours; reduction of clearance (patients with renal impairment (creatinine clearance ≤50 ml/min) or hepatic cirrhosis): approximately 50%; area under the curve over 24 hours (AUC) (single 250 mg terbinafine dose): about 4.76 microgram.hour/millilitre; factor of AUC increase in steady state versus single dose [1]: 2.5; increase of Cmax in steady state versus single dose [1]: 25%
